Measured values taken from ChEMBL document CHEMBL1201862, “PubChem BioAssay data set” (2004).
Calls of active or inactive are those of the source.

What was measured:
[1] = Counterscreen for inhibitors of Trypanosoma brucei methionyl tRNA synthetase (MetRS): Luminescence-based cell-based high throughput dose response assay to identify compounds that are cytotoxic to Jurkat human T lymphocyte cells.; format: functional
[2] = biological target: T1, Methionyl-tRNA synthetase, putative (Trypanosoma brucei brucei, UniProt Q38C91); format: functional, Trypanosoma brucei brucei strain 927/4 GUTat10.1
T1 sequence (Q38C91 whole entry): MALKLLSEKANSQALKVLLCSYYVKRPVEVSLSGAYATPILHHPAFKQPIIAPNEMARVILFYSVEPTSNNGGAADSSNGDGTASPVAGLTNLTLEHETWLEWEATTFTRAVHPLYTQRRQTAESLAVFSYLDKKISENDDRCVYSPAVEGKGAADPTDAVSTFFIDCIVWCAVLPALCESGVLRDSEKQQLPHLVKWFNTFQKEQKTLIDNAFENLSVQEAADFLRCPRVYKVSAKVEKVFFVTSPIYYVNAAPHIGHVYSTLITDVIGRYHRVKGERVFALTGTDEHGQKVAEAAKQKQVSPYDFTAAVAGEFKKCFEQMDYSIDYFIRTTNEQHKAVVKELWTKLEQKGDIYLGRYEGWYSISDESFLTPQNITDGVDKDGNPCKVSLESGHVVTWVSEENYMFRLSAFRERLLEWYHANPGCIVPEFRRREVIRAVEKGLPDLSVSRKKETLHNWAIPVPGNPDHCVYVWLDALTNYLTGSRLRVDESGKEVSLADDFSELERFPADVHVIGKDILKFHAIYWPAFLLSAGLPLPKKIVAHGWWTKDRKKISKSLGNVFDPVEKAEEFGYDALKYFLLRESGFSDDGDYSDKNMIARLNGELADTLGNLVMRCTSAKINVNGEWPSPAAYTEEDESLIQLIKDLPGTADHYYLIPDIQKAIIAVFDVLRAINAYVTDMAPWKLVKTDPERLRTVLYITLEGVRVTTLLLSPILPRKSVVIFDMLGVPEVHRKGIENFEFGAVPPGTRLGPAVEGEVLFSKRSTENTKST

[3] = biological target: T1, Methionyl-tRNA synthetase, putative; format: functional, Trypanosoma brucei brucei strain 927/4 GUTat10.1; remark: listed apart in the source
[4] = Late stage counterscreen for inhibitors of Trypanosoma brucei methionyl tRNA synthetase (MetRS): Luminescence-based cell-based high throughput dose response assay to identify compounds that are cytotoxic to Jurkat human T lymphocyte cells.; format: functional
cells [5] = format: functional, cell-based; settings: HEK-CNG
INS1 = experiment: INS-1E survival protection against cytokine death – cell-based, luminescence, retest, dose response (AID 449756); format: functional; settings: Rattus norvegicus;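 also: cell death triggered by IL-1 beta plus TNF-alpha plus IFN-gamma mixture; protective hits raise ATP signal compared with cytokine alone wells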
[6] = blockers of HIV-1 envelope-mediated cell-cell fusion – cherry-pick, dose response (AID 652057); format: functional, cell-based
Cytochrome P450 3A4 = Cytochrome P450 3A4 (Homo sapiens, UniProt P08684);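 also: CYP3A4 tested as one member of a cytochrome P450 panel screen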
[7] = blockers of HIV-1 ZM109 envelope-driven cell-cell fusion – HeLa effector, CEM target cells, luciferase, cherry-pick, dose response (AID 652058); format: functional, cell-based;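 also: luciferase signal from HIV-1 Env mediated cell-cell fusion of effector and target cells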
Jurkat = experiment: blockers of NF-kB activation in T cells – Jurkat, luciferase reporter, luminescence, B- and T-cell, dose response (AID 489004); format: functional, cell-based; settings: Homo sapiens;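 also: NF-kB luciferase reporter Jurkat cells stimulated with PMA plus ionomycin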
[8] = biological target: COUP transcription factor 2 (Homo sapiens, UniProt P24468); experiment: Luminescence-based cell-based high throughput dose response assay to identify inhibitors of COUP-TFII (NR2F2).; format: functional;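 also: HEK293 cells transiently cotransfected with COUP-TFII expression vector and reporter; luciferase reporter luminescence driven by COUP-TFII from the pX2-168 reporter plasmid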
[9] = HIV-1 AD8 envelope cell-cell fusion blockers – cherry-pick, dose response (AID 652062); format: functional, cell-based;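 also: luciferase signal from cell-cell fusion driven by HIV-1 clade B AD8 Env; potency is for inhibitors of fusion seen as a drop in luminescence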
Cytochrome P450 2C19 = Cytochrome P450 2C19 (Homo sapiens, UniProt P33261); experiment: Cytochrome panel assay with activity outcomes. Panel member name: p450-cyp2c19 Compounds with AC50 equal or less than 10 uM are considered active; format: functional; settings: read-out: AC50
Galanin receptor type 3 = Galanin receptor type 3 (Homo sapiens, UniProt O60755); experiment: Fluorescence-based cell-based primary high throughput dose response assay to identify antagonists of the Galanin Receptor 3 (GalR3).; format: functional
[10] = HEK-293T viability loss, compound-treated – cell-based, uHTS hits, cytotoxicity control for B/T-cell NF-kB inhibitor project, dose response (AID 489019); format: functional;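 also: IC50 reflects cytotoxicity as loss of cell viability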
[11] = biological target: NAD-dependent protein deacylase sirtuin-5, mitochondrial (Homo sapiens, UniProt Q9NXA8); experiment: sirtuin-5 deacylation blockers, concentration series – biochemical, fluorescence imaging, cherry-pick, set 5, dose response (AID 720591);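 also: desuccinylation of succinyl peptide AMC substrate read as fluorescence after trypsin release; potency of inhibitors that lower fluorescence and may act on trypsin instead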
[12] = IC50 of Artemis nuclease activity blockers – biochemical, fluorescence intensity, dose response (AID 720701); format: functional;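 also: Artemis endonuclease enzyme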
Bcl-2-like protein 10 = Bcl-2-like protein 10 (Homo sapiens, UniProt Q9HD36); experiment: Bcl-B/TR3 peptide binding disruption – biochemical, fluorescence polarization, FITC-TR3 peptide, selectivity assay for Bfl-1 inhibitor project, primary screen (AID 748);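 also: fluorescence polarization from a fluorescein-labelled TR3 peptide binding purified Bcl-B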
[13] = viability loss in HepG2 liver cells – cell-based, ATP luminescence, cherry-pick, set 6, cytotoxicity control, dose response (AID 1053125); format: functional
cells [14] = settings: HEK293
HeLa = experiment: ATP-based viability loss in HeLa cells – cell-based, CellTiter-Glo luminescence, cherry-pick samples, cytotoxicity control for MITF activator project, dose response (AID 540259); format: functional; settings: Homo sapiens
[15] = viability inhibitors of stage V gametocytes – luminescence, dose response (AID 1117278); format: functional, cell-based;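 also: gametocytes exposed to compound for 24 hours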
[16] = viability loss in human Jurkat cells – cell-based, luminescence, cytotoxicity control for P. falciparum gametocyte viability project, dose response (AID 1117277); format: functional;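 also: potency reflects loss of cellular ATP meaning fewer viable cells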
Kallikrein-7 = Kallikrein-7 (Homo sapiens, UniProt P49862); experiment: Fluorescence Intensity-based biochemical primary high throughput dose response assay to identify activators of kallikrein-7 (K7) zymogen.
[17] = OVCAR8 cell viability loss – plate reader, dry powder samples, PAX8 project, dose response (AID 743197); format: functional, cell-based; settings: OVCAR-8
[18] = toxicity toward immortalized ovarian surface epithelium – cell-based, plate reader, dry powder samples, cytotoxicity control for PAX8 inhibitor project, dose response (AID 743045); format: functional
[19] = OVCAR-3 cell viability loss – plate reader, dry powder samples, PAX8 inhibitor project, dose response (AID 743044); format: functional, cell-based
[20] = IGROV1 cell killing – plate reader, dry powder samples, PAX8 inhibitor project, dose response (AID 743043); format: functional, cell-based; settings: IGROV-1
Paired box protein Pax-8 = Paired box protein Pax-8 (Homo sapiens, UniProt Q06710); experiment: PAX8 transcriptional activity inhibition in RMG-I – RMG-I cells, luciferase, cherry-pick, dose response (AID 687027); format: functional, cell-based;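 also: luciferase reporter driven by Pax8 target thyroperoxidase promoter measured by SteadyGlo luminescence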
[21] = A2780 cell killing – plate reader, dry powder samples, cytotoxicity control, dose response (AID 743046); format: functional, cell-based

COUP transcription factor 2, sequence (P24468 whole entry, the tested form may be a part): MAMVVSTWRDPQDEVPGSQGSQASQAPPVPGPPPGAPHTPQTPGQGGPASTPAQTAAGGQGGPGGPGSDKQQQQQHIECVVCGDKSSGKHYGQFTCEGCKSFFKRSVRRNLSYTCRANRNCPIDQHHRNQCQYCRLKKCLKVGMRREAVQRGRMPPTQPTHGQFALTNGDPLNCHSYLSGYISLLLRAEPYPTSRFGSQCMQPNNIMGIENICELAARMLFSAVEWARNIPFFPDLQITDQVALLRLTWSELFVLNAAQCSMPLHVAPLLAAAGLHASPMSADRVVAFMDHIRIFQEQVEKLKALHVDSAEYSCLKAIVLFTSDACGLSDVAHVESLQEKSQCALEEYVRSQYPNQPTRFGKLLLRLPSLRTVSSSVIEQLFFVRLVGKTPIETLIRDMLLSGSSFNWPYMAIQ
Kallikrein-7, sequence (P49862 whole entry): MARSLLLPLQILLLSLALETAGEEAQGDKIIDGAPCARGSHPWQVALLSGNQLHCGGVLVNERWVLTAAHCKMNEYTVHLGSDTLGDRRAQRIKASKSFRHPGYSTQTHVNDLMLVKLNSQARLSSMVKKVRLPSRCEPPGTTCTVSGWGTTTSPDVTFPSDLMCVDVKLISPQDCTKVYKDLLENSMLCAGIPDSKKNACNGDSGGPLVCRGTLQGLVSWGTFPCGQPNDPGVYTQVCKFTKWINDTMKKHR
Galanin receptor type 3, sequence (O60755 whole entry): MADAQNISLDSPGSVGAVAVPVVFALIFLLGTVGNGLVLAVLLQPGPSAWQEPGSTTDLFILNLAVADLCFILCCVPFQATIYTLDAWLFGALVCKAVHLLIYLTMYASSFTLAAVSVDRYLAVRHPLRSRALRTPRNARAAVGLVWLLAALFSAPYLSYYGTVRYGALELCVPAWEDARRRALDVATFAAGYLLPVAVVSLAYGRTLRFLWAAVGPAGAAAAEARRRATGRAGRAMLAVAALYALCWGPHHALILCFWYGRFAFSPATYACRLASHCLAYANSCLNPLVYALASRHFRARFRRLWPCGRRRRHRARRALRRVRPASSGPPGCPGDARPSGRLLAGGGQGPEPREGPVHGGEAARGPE
Bcl-2-like protein 10, sequence (Q9HD36 whole entry): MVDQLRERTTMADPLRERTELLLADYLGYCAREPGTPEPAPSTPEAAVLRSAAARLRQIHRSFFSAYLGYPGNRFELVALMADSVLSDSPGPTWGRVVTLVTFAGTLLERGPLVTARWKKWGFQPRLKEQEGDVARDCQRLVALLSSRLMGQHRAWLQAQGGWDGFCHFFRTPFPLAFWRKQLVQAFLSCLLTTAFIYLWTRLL
Paired box protein Pax-8, sequence (Q06710 whole entry): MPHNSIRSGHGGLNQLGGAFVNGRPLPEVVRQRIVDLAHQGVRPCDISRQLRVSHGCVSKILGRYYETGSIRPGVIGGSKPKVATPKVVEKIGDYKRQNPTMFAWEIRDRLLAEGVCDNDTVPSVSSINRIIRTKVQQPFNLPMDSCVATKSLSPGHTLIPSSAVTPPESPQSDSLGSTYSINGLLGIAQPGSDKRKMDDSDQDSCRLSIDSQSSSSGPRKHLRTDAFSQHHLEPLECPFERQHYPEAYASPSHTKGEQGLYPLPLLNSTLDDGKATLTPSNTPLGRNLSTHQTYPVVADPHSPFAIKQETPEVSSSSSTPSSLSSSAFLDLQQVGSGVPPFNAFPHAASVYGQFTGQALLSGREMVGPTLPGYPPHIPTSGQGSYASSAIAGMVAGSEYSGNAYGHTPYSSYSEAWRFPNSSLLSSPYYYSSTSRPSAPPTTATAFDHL
Cytochrome P450 2C19, sequence (P33261 whole entry): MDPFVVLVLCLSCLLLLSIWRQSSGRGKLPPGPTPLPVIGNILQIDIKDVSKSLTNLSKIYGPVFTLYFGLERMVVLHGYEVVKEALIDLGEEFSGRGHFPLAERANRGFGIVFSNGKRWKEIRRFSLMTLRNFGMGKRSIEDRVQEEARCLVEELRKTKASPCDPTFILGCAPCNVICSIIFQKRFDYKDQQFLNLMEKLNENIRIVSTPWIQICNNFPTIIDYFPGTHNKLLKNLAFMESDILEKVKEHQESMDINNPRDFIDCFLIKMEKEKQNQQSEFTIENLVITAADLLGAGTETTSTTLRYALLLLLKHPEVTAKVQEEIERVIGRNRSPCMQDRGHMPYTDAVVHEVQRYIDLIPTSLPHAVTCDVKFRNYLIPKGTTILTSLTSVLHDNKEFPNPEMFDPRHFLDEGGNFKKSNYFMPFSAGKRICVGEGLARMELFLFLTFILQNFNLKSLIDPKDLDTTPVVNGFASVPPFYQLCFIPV
NAD-dependent protein deacylase sirtuin-5, mitochondrial, sequence (Q9NXA8 whole entry): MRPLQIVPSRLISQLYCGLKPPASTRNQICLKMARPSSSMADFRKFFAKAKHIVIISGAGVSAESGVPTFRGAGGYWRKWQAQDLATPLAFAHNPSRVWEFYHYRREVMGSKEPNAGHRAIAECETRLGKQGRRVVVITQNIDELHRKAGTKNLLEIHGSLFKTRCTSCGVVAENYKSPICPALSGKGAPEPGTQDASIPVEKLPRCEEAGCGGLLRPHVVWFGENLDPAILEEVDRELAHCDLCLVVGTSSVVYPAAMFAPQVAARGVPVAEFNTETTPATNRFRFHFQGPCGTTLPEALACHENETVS
Cytochrome P450 3A4, sequence (P08684 whole entry, the tested form may be a part): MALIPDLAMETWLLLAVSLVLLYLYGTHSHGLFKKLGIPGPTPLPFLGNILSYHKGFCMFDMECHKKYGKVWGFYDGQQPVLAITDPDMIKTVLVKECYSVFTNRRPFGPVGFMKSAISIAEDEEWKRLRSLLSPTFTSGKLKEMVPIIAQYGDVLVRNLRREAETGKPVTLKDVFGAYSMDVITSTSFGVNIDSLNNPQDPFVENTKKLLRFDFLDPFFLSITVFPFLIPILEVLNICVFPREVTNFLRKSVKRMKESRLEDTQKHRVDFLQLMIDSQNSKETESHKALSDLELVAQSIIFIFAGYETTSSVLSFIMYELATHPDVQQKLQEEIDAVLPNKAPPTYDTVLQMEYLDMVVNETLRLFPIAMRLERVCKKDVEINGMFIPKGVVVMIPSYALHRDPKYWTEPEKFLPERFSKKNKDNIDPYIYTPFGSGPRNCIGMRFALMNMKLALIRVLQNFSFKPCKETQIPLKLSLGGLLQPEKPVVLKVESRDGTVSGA

For CC(=O)c1ccc(N2CCN(C(=O)CCCn3c(=O)[nH]c4ccc(Br)cc4c3=O)CC2)cc1, the IC50 [1] was 53.2 µM (inactive), the IC50 [2] was 0.579 µM (active) and the IC50 [3] was 1.48 µM (active). The IC50 [4] was 25.9 µM (inactive).
For Cc1cc(N2CCN(c3nc4ccccc4s3)CC2)n2ncnc2n1, the EC50 (cells [5]) was > 29.9 µM (inactive), the AC50 (INS1) was 5.06 µM (active) and the AC50 [6] was 4.63 µM (active). The AC50 (Cytochrome P450 3A4) was 39.8 µM (inconclusive), the AC50 [7] was 6.41 µM (active) and the IC50 (Jurkat) was > 80 µM (inactive). The IC50 [8] was 6.41 µM (active), the AC50 [9] was 5.3 µM (active) and the AC50 (Cytochrome P450 2C19) was 14.1 µM (inconclusive). For the same compound, the IC50 (Galanin receptor type 3) was 1.43 µM (active) and the IC50 [10] was > 80 µM (inactive).
For COc1ccc(-c2csc3ncnc(O)c23)cc1, the AC50 [11] was 15.6 µM (active).
In the case of Cc1cc(-c2csc(N)n2)c(C)n1C, the IC50 [12] is reported as > 20 µM (inactive) and the IC50 (Bcl-2-like protein 10) is reported as 26 µM (active).
With Nc1ccc(C#Cc2ccc3c(=O)c4ccccc4oc3c2)cc1 the AC50 [13] was > 52 µM (inactive), the AC50 (cells [14]) was > 52 µM (inactive) and the AC50 (HeLa) was 59.6 µM (active).
In the case of O=C1N[C@@H](c2ccccc2)COC(=O)[C@@H](Cc2ccc(F)cc2)C/C=C\C[C@H]1CC(=O)N(CCO)Cc1ccccc1, the IC50 [15] is reported as > 109 µM (inactive) and the IC50 [16] is reported as 37.8 µM (inactive).
For COC(=O)c1ccc(N2C(c3cc(OC)cc(OC)c3)=Cc3ccc(-c4cccnc4)cc3C2CC(=O)C2CC2)cc1 (stereo not given), the EC50 (Kallikrein-7) was 38.9 µM (inactive).
With C[C@@H]1CCCCO[C@H](CN(C)Cc2ccncc2)[C@H](C)CN([C@@H](C)CO)C(=O)c2cc(NC(=O)NC3CCCCC3)ccc2O1 the AC50 [17] was 68.3 µM (active), the AC50 [18] was 36.7 µM (active) and the AC50 [19] was 18.7 µM (active). For the same compound, the AC50 [20] was 25.5 µM (active), the AC50 (Paired box protein Pax-8) was 11.3 µM (active) and the AC50 [21] was 36.1 µM (active).
